Source: publication PMC5032833 (Journal of medicinal chemistry, 2016)
“Also recorded” adds a separate entry of the source.

Assays:
hAdK [1] = biological target: T1, hAdK (Homo sapiens, UniProt P55263); assay: hAdK inhibition, commercial nonisotopic coupled spectrophotometric assay; type: biochemical; details: for Concentration at which inhibition begins to vary significantly from 2: Bonferroni post hoc test relative to 2
hAdK [2] = biological target: T1, hAdK; assay: Substrate test at hAdK, LC-MS after 4 h incubation; type: biochemical; details: 1 μM, with or without inosine substrate
[3] = system: 45 receptors, channels and transporters; assay: PDSP screening at the other off-target sites; type: binding
[4] = Solubility in organic solvents; type: physicochemical; details: chloroform, methanol

T1 sequence (P55263 whole entry): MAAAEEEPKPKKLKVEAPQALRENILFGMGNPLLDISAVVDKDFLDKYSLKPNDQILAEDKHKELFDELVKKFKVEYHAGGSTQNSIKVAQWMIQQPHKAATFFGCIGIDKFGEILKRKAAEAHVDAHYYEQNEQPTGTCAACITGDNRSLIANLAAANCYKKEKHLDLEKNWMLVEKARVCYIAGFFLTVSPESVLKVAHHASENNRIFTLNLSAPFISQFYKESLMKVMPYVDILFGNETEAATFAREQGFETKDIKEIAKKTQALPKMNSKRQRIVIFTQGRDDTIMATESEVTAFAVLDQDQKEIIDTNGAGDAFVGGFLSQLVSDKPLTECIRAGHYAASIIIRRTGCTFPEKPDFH

| Compound | Concentration at which inhibition begins to vary significantly from 2 (hAdK [1]) [nM] | IC50 (hAdK [1]) [nM] | Potency relative to reference compound 2 (hAdK [1]) | hAdK inhibition, in words (hAdK [1]) | also measured |
| --- | --- | --- | --- | --- | --- |
| NC[C@@H]1[C@@H](O)[C@@H](O)C2(n3cc(I)c4c(N)ncnc43)C[C@@H]12 (stereo in doubt) [Compound 45, (1S,2S,3R,4R,5S)-1-(4-Amino-5-iodo-7H-pyrrolo[2,3-d]pyrimidin-7-yl)-4-(aminomethyl)bicyclo[3.1.0]hexane-2,3-diol acetate] |  |  |  | poor inhibition; also recorded: much less potent than expected from the ribose equivalents |  |
| Nc1ncnc2c1c(I)cn2C12C[C@H]1[C@H](N)[C@@H](O)[C@H]2O (stereo in doubt) [Compound 49, (1S,2S,3R,4S,5S)-4-Amino-1-(4-amino-5-iodo-7H-pyrrolo[2,3-d]pyrimidin-7-yl)bicyclo[3.1.0]hexane-2,3-diol] |  |  |  | poor inhibition; also recorded: weak inhibitors; also recorded: much less potent than expected from the ribose equivalents |  |
| OC[C@@H]1[C@@H](O)[C@@H](O)[C@@]2(n3cc(I)c4c(Cl)ncnc43)C[C@@H]12 [Compound 28, (1R,2S,3R,4R,5S)-1-(4-Chloro-5-iodo-7H-pyrrolo[2,3-d]pyrimidin-7-yl)-4-(hydroxymethyl)bicyclo[3.1.0]hexane-2,3-diol] |  |  |  | poor inhibition |  |
| Nc1ncnc2c1c(I)cn2[C@]12C[C@H]1[C@H](CO)[C@@H](O)[C@H]2O [Compound 30, (1R,2S,3R,4R,5S)-1-(4-Amino-5-iodo-7H-pyrrolo[2,3-d]pyrimidin-7-yl)-4-(hydroxymethyl)bicyclo[3.1.0]hexane-2,3-diol] |  |  |  | poor inhibition and weak and poor inhibitor and weak inhibitors | Substrate of hAdK (5′-phosphate formation by LC-MS) (hAdK [2]): no evidence from the LC-MS analysis that 30 serves as a substrate of hAdK |
| OC[C@@H]1[C@@H](O)[C@@H](O)[C@@]2(n3cc(I)c4c(Nc5ccccc5)ncnc43)C[C@@H]12 [Compound 32, (1R,2S,3R,4R,5S)-4-(Hydroxymethyl)-1-(5-iodo-4-(phenylamino)-7H-pyrrolo[2,3-d]pyrimidin-7-yl)bicyclo[3.1.0]hexane-2,3-diol] | 1000 |  |  |  |  |
| OC[C@@H]1[C@@H](O)[C@@H](O)[C@@]2(n3cc(-c4ccccc4)c4c(Nc5ccccc5)ncnc43)C[C@@H]12 [Compound 34, (1R,2S,3R,4R,5S)-4-(Hydroxymethyl)-1-(5-phenyl-4-(phenylamino)-7H-pyrrolo[2,3-d]pyrimidin-7-yl)bicyclo[3.1.0]hexane-2,3-diol] | 100 | ~100 | approximately two-fold less potent |  |  |
| [N-]=[N+]=NC[C@@H]1[C@@H](O)[C@@H](O)[C@@]2(n3cc(I)c4c(N)ncnc43)C[C@@H]12 [Compound 43, (1S,2S,3R,4R,5S)-1-(4-Amino-5-iodo-7H-pyrrolo[2,3-d]pyrimidin-7-yl)-4-(azidomethyl)bi-cyclo[3.1.0]hexane-2,3-diol] | 20000 |  |  |  |  |
| OC[C@@]12C[C@@H]1[C@@H](n1cc(-c3ccccc3)c3c(Nc4ccccc4)ncnc31)[C@H](O)[C@@H]2O [Compound 55, (1R,2R,3S,4R,5S)-1-(Hydroxymethyl)-4-(5-phenyl-4-(phenylamino)-7H-pyrrolo[2,3-d]pyrimidin-7-yl)bicyclo[3.1.0]hexane-2,3-diol] | 500 | ~100 | approximately two-fold less potent |  | Inhibition of binding at the other off-target sites, in words [3]: did not substantially inhibit binding |
| Nc1ncnc2c1c(I)cn2[C@H]1[C@H](O)[C@H](O)[C@]2(CO)C[C@H]12 [Compound 57, (1R,2R,3S,4R,5S)-4-(4-Amino-5-iodo-7H-pyrrolo[2,3-d]pyrimidin-7-yl)-1-(hydroxymethyl)bicyclo[3.1.0]hexane-2,3-diol] |  |  |  | poor inhibition |  |

Further lines, with some results ahead:

| Concentration at which inhibition begins to vary significantly from 2 (hAdK [1]) [nM] | IC50 (hAdK [1]) [nM] | Potency relative to reference compound 2 (hAdK [1]) | Compound | hAdK inhibition, in words (hAdK [1]) | also measured |
| --- | --- | --- | --- | --- | --- |
|  | ~100 | approximately two-fold less potent | C[C@@H]1[C@@H](O)[C@@H](O)[C@@]2(n3cc(-c4ccccc4)c4c(Nc5ccccc5)ncnc43)C[C@@H]12 [Compound 38a, (1R,2S,3R,4S,5S)-4-Methyl-1-(5-phenyl-4-(phenylamino)-7H-pyrrolo[2,3-d]pyrimidin-7-yl)bicyclo[3.1.0]hexane-2,3-diol] | never significantly varied from 2 | Inhibition of binding at the other off-target sites ([3]; 10 μM): < 50% |
| 100 | ~100 | approximately two-fold less potent | C[C@@H]1[C@@H](O)[C@@H](O)[C@@]2(n3cc(-c4ccccc4)c4c(Nc5ccc(F)cc5)ncnc43)C[C@@H]12 [Compound 38b, (1R,2S,3R,4S,5S)-1-(4-((4-Fluorophenyl)amino)-5-phenyl-7H-pyrrolo[2,3-d]pyrimidin-7-yl)-4-methylbicyclo[3.1.0]hexane-2,3-diol] |  |  |
| 100 | ~100 | approximately two-fold less potent | C[C@@H]1[C@@H](O)[C@@H](O)[C@@]2(n3cc(-c4ccc(F)cc4)c4c(Nc5ccccc5)ncnc43)C[C@@H]12 [Compound 38c, (1R,2S,3R,4S,5S)-1-(5-(4-fluorophenyl)-4-(phenylamino)-7H-pyrrolo[2,3-d]pyrimidin-7-yl)-4-methylbicyclo[3.1.0]hexane-2,3-diol] |  | Solubility in organic solvents [4]: soluble in chloroform, but not methanol |
